Source: patent US20250019370A1, “L-LYSINE SALT OF 4-CHLORO-5-[4-(2,6-DICHLOROPHENYL)SULFONYLPIPERAZIN-1-YL]-1-BENZOFURAN-2-CARBOXYLIC ACID AND VARIOUS FORMS THEREOF” (ENYO PHARMA, priority 2023, published 2025)

Tests used:
[1] = Dynamic Vapor Sorption (DVS) analysis (gas water sorption); type: physicochemical; conditions: for water uptake (DVS): 25° C./60% RH; for hygroscopicity (DVS): hygroscopic above 2% mass gain at 25° C./60% RH
Description: The dynamic vapor sorption (DVS) analysis (gas water sorption) was performed on a DVS-Intrinsic incubator (SMS Ltd), equipped with DVS-Intrinsic Control Software 1.0. The sample, placed in an aluminium basket holder, was submitted to a full-cycle analysis (sorption followed by desorption cycle) under the following conditions:
The sample was first pre-dried under a stream of dry air until a stabilized sample mass was observed. Then, the relative humidity was increased by 5% increments. At each step, the sample mass was allowed to increase until equilibrium is reached (according to a given dm/dt target), and then a new relative humidity rise occurred. Relative humidity was ramped up to 95%. After equilibration at this point, desorption began in a similar stepwise manner, with sample mass decrease again allowed to stabilize after each incremental humidity decrease.
With both segments of the above-described method, the sample mass recording allowed describing of the whole vapor water sorption/desorption behaviour versus relative humidity.

[2] = Pharmacokinetic study Experiment #1, oral administration in rats; type: in vivo, rat; conditions: 50 mg EqEYP001/Kg
Description: (§1) In a first study (Experiment #1), EYP001, EYP001 Meglumine salt, and EYP001 L-lysine salt Form I in aqueous formulations (0.5% CMC, 0.25% Tween 80, water) were orally administrated at a dose of 50 mg EqEYP001/Kg in 3 male rats for each compound. Blood samples were taken at 0.25 h, 0.5 h, 1 h, 2 h, 4 h, 6 h, 8 h, 12 h, and 24 h after oral administration.

[3] = Pharmacokinetic study Experiment #3, oral administration in rats; type: in vivo, rat; conditions: 10 mg EqEYP001/Kg
Description: as §1, with “third” for “first”, “#3),” for “#1), EYP001,”, “EYP001” for “EYP001 Meglumine salt,”, “10” for “50”, “6-8” for “3”

[4] = listed as EYP001 L-lysine salt (Sample A)
[5] = listed as EYP001 L-lysine salt (form I)
[6] = male rats, versus EYP001 free acid

SMILES: NCCCC[C@H](N)C(=O)O.O=C(O)c1cc2c(Cl)c(N3CCN(S(=O)(=O)c4c(Cl)cccc4Cl)CC3)ccc2o1 [EYP001 L-lysine salt Form I, L-lysine salt of 4-chloro-5-[4-(2,6-dichlorophenyl)sulfonylpiperazin-1-yl]-1-benzofuran-2-carboxylic acid]
- mass loss during preliminary drying phase ([1]; 25° C./0% RH before sorption, listed as EYP001 L-lysine salt (Sample A)): no significant mass loss
- water uptake (DVS) [1, 4]: 0.4%
- water uptake (DVS) [1, 5]: 0.4%
- water uptake upon sorption (DVS) ([1]; 25° C./95% RH, listed as EYP001 L-lysine salt (Sample A)): 0.8%
- final sample mass after full sorption-desorption cycle versus initial mass ([1]; back to 0% RH): roughly the same as the initial one
- hygroscopicity (DVS) [1, 4]: non-hygroscopic
- hygroscopicity (DVS) [1, 5]: non-hygroscopic
- Mean AUC0-24 ([2]; male rats, aqueous formulation): 60011 ng·h/mL
- Mean Cmax ([2]; male rats, aqueous formulation): 8827 ng/mL
- % increase/EYP001 (AUC0-24) [2, 6]: +15%
- % increase/EYP001 (Cmax) [2, 6]: +26%
- C max compared to EYP001 free acid and EYP001 Meglumine salt ([2]; rat): higher C max
- exposure (AUC0-24) compared to EYP001 free acid and EYP001 Meglumine salt ([2]; rat): superior exposure
- Mean AUC0-24 ([3]; male rats, aqueous formulation): 7311 ng·h/mL
- Mean Cmax ([3]; male rats, aqueous formulation): 2947 ng/mL
- % increase/EYP001 (AUC0-24) [3, 6]: +84%
- % increase/EYP001 (Cmax) [3, 6]: +118%
- exposure and C max compared to EYP001 free acid ([3]; rat): superiority
- variability of the C max (CV %) compared to EYP001 free acid ([3]; rat): strongly reduced
- variability of the exposure (CV %) compared to EYP001 free acid ([3]; rat): strongly reduced
